Test results taken from ChEMBL document CHEMBL4118113, “Lipophilic Efficiency as an Important Metric in Drug Design” (J Med Chem, 2018).
pIC50, pKi: −log10 of the molar value.

How the values were obtained:
[1] = Lipophilicity, log D of the compound; type: physicochemical; details: octanol/water
[2] = biological target: ALK tyrosine kinase receptor (Homo sapiens, UniProt Q9UM73, L1196M); assay: Inhibition of ALK L1196M mutant (unknown origin)
[3] = biological target: Aldo-keto reductase family 1 member B1 (Homo sapiens, UniProt P15121); assay: Inhibition of human ALR2

Sequence of ALK tyrosine kinase receptor (Q9UM73 19-1620 L1196M limits assumed): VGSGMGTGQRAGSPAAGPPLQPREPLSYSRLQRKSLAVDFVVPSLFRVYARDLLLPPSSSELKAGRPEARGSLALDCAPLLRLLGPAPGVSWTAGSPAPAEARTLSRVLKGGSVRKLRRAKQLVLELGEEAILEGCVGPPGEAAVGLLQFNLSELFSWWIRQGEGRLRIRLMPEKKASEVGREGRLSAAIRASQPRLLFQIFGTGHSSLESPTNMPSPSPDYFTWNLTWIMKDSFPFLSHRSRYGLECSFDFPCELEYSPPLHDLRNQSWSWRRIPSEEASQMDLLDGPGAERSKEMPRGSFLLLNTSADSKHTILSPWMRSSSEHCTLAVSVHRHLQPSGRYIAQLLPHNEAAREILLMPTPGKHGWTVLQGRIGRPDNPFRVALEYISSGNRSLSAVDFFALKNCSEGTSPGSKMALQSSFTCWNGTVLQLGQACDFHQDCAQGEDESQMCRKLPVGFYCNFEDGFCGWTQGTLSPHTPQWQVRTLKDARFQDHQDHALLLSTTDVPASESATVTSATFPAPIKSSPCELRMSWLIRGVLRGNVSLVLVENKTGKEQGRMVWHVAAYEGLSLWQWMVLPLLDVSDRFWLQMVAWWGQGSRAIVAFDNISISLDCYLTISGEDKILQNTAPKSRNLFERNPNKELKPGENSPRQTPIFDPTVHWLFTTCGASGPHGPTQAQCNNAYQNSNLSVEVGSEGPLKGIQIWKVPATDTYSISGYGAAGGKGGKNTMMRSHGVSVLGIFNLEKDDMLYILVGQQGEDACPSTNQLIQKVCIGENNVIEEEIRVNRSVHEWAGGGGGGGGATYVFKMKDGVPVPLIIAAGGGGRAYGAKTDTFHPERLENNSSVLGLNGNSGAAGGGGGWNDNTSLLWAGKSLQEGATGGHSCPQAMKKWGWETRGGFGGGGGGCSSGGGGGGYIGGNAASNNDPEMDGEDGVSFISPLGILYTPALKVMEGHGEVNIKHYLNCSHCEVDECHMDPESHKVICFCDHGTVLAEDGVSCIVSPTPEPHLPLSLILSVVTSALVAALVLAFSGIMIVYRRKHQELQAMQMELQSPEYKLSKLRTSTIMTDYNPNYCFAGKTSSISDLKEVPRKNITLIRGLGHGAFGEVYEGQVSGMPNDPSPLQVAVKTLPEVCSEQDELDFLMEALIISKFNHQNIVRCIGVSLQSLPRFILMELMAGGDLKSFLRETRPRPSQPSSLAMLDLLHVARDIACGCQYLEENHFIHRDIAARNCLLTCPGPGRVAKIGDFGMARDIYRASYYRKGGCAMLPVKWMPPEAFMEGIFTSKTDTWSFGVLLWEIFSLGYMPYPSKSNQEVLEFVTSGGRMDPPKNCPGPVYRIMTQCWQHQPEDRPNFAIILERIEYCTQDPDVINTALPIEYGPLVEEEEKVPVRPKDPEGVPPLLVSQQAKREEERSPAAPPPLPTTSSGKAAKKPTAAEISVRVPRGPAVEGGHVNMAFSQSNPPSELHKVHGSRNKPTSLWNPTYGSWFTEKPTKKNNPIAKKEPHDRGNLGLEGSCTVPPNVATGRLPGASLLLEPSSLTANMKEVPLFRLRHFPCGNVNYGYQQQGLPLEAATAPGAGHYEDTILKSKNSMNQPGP

SMILES | logD [1] | pKi [2] | pIC50 [3]
C[C@H]1Oc2cc(cnc2N)-c2c(nn(C)c2C#N)CN(C)C(=O)c2ccccc21 | 2.2 | 8.40 | –
O=C(O)COc1cc(Cl)ccc1C(=O)NCc1ccc(Br)cc1 | – | – | 6.26
